In patent US20100285095A1 (priority 2009, published 2010):
“And” between values parts separate entries of the source, which are not always exact repeats. Identical values can stand only once. Like-named read-outs stand apart in the source and are kept apart here.

Key:
S. aureus MN 8 = format: cell-based, Staphylococcus aureus
physchem = conditions: 25 °C, water
[1] = % reduction per mM Ca added, higher concentrations, Ca (mM) as in Table 2: chloride 75.6, stearate 98.8, lactate 53.1, citrate malate 22.6, glycerate 39.7, gluconate 38.4, α-D-heptagluconate 38.1
[2] = % reduction per mM Ca added, low concentrations, Ca (mM) as in Table 1: chloride 15.1, stearate 9.9, lactate 8.8, citrate malate 6.8, glycerate 4.0, gluconate 3.8, α-D-heptagluconate 3.8
[3] = reduction of TSST-1 vs. PBS and BHI control, low concentrations, Ca (mM) added to shake flask: calcium chloride 15.1, calcium stearate 9.9 (solid added directly into the media), calcium lactate 8.8, calcium citrate malate 6.8, calcium glycerate 4.0, calcium gluconate 3.8, calcium α-D-heptagluconate 3.8
[4] = % reduction per mM Ca added, Ca 4.0 mM added to shake flask

Row | Molecule | % TSST-1 Change (μg/ml/mM) vs. control (S. aureus MN 8; [1]) | % TSST-1 Change (μg/ml/mM) vs. control (S. aureus MN 8; [2]) | % TSST-1 Change (μg/mL) vs. control (S. aureus MN 8; [3]) | % TSST-1 Change (μg/ml/mM) vs. control (S. aureus MN 8; [4]) | other results
1 | calcium gluconate | 2.5% | 21.3% | 81% |  | 
2 | calcium stearate [reference compound] | 0.6% | 6.6% | 65% |  | 
3 | O=C(O)C(O)CO (stereo not drawn) [calcium glycerate] | 2.5% | 17.0% | 68% |  | solubility (physchem): 349 mM
4 | CC(O)C(=O)[O-].CC(O)C(=O)[O-].[Ca+2] (stereo not drawn) [calcium lactate, reference compound] | 1.7% | 5.6% | 49% |  | 
5 | calcium citrate malate [reference compound] | 3.9% | 13.1% | 89% |  | 
6 | O=C([O-])C(O)CO.O=C([O-])C(O)CO.[Ca+2] [calcium D-glycerate] |  |  |  | 22.9% | 
7 | [Ca+2].[Cl-].[Cl-] [calcium chloride, reference compound] | 1.1% | 2.5% | 37% |  | 
8 | O=C(O)C(O)CO (racemic) [calcium glycerate] |  |  |  | 17.0% | 
9 | O=C([O-])[C@@H](O)CO.O=C([O-])[C@@H](O)CO.[Ca+2] [calcium L-glycerate] |  |  |  | 15.3% | 
10 | O=C([O-])C(O)[C@H](O)[C@@H](O)[C@H](O)[C@H](O)CO.O=C([O-])C(O)[C@H](O)[C@@H](O)[C@H](O)[C@H](O)CO.[Ca+2] (stereo partly drawn) [calcium α-D-heptagluconate] |  |  |  |  | % TSST-1 Change (μg/mL) vs. control (S. aureus MN 8): 47%; % TSST-1 Change (μg/ml/mM) vs. control (S. aureus MN 8): 12.5% and 2.6%
